From a melting point compilation (Tetko et al.; mined from patent text by program, amines drawn as free bases though some values may be those of a salt) come the findings set out here.

Molecules are shown by their SMILES.

The melting point is the temperature, or range, at which the solid turns liquid. With `O=C1NC(=O)C(=Cc2ccc(S(=O)(=O)CCCc3ccccc3)cc2)S1`, the melting point fell in the range of 224 to 225 °C.

Compound `CC(=O)c1ccc(S(=O)(=O)Nc2ccc(F)cn2)cc1` displayed a melting point of 151 to 152 °C.

With `COc1ccc(C(C)=O)cc1C=CC(=O)O`, the melting point turned out to be 203 °C.

Compound `Cc1c(C)c2c(c(C)c1NC=O)OC(C)(C)C2=O` displayed a melting point of 191 to 192 °C.

As to `CC(C)(O)CNC(=O)c1cccc(-c2cccc3cc(Cc4cc(F)cc(Cl)c4)sc23)c1`, the melting point is 123 °C.

Compound `FC(F)(F)c1c(CNC2Cc3ccccc3C2)ccn2c(CC3CC3)nnc12` displayed a melting point greater than 300 °C.

The compound `NC(=O)N(O)Cc1ccc(Oc2ccccc2)s1` gave a melting point of 114 to 116 °C.

Take `O=c1c(Cl)c(OCc2ccc(Cl)cc2)cnn1-c1ccc(F)cc1F`: the melting point is 167 °C.

For the compound `N#Cc1ccccc1OC1SCC(O)C(O)C1O` (configuration not stated), the melting point is 130 to 132 °C.

With `OC(Cn1cncn1)(c1ccc(F)cc1F)C(F)(F)C(F)(F)F` (configuration not stated), the melting point lay within 95 to 96 °C.

Compound `CC(C)c1cc(Oc2ccc(Cl)c(Cl)c2)nc(C(C)C)c1N=CN(C)C` showed a melting point of 102 to 103 °C.

Compound `CCOc1ccccc1OCCNC(C)Cc1ccc(OC)c(S(N)(=O)=O)c1` (configuration not stated) returned a melting point of 118 to 124 °C.

Turning to `COCC1(CCCCCCCCCCCCC2(C(=O)NS(C)(=O)=O)CC2)CC1`, the melting point was 44.6 to 45.3 °C.

Turning to `COc1cccc(-n2c(=O)c3c(c4cccnc42)OCC3)c1`, the melting point is greater than 260 °C.

`CCOC1(CCC(=O)O)c2cc(C)c(OC(C)=O)cc2Oc2cc(OC(C)=O)c(C)cc21` came in with a melting point of 143 °C.

In turn, `COc1ccc(N=C(N)N(C)C)c(N2CCOCC2)c1` showed a melting point of 135 °C.

`CCOP(=O)(NC(=O)c1[nH]c2cc(OC)c(OC)cc2c1-c1ccc(OC)c(OC)c1)OCC` showed a melting point of 217 to 219 °C.

Regarding `CCCNCC(O)c1ccc(Br)cc1` (configuration not stated), the melting point was 72.5 to 74.5 °C.

Consider `CCOC(=O)c1nc(C2CC2)nc(N)c1/C=C/[Si](C)(C)C`, for which the melting point fell in the range of 99 to 101 °C.

Turning to `Fc1ccccc1[C@@H]1Cc2cnc(Nc3cccc(CCN4CCNCC4)c3)nc2-c2ccccc21`, the melting point was 165 to 167 °C.

`COc1cccc(CN(CCC(=O)O)c2nc(NC(=O)Nc3ccccc3OC)nc(Oc3ccc4ccccc4c3)n2)c1` yielded a melting point of 189 to 194 °C.

As to `Nc1nc2ccccc2n1-c1cccc(-c2nccs2)c1`, the melting point is 224 to 226 °C.

For the compound `CC(C)CNS(=O)(=O)c1ccc2c(c1)C=C(C(=O)O)C(C(F)(F)F)O2` (configuration not stated), the melting point lay in the range of 191 to 192 °C.

Compound `CC(C)c1cn2ccccc2c1S(=O)(=O)c1ccc(OCC2CO2)cc1` (configuration not stated) had a melting point of 110 to 111 °C.

On to `Nc1ncnc2[nH]c(Br)c(-c3ccc(Oc4ccccc4)cc3)c12`, for which the melting point fell in the range of 282 to 283 °C.

As for `Cn1cc(S(C)=O)c(=O)c2ccc(Br)cc21` (configuration not stated), the melting point lay in the range of 248 to 249 °C.

Turning to `CC(C)(C)C(Cl)=CC(=O)O`, the melting point was 146 to 148 °C.

For `CC(=O)c1ccc(C2=CCCCC2)cc1`, the melting point was in the range of 76 to 77 °C.

For the compound `N#Cc1ccc(-c2cccc3cncn23)cc1`, the melting point was 117 to 118 °C.

Regarding `O=S(=O)(c1ccc(Cl)cc1)N1CCCC1c1ccccc1F` (racemic), the melting point came out at 134 °C.

In the case of `CN(C)C1CCN(c2nc(N3CCOCC3)c3ncnc(N(CCC#N)Cc4ccccc4)c3n2)CC1`, the melting point is 45 to 47 °C.

Compound `CC(C)(C)OC(=O)N(O)C(=O)CN` had a melting point of 115 to 117 °C.

As for `CCOC(=O)c1ccc(C(=O)OCC)c2cc3ccccc3cc12`, the melting point was in the range of 99 to 100 °C.

Compound `COc1cc(Nc2nccc(-c3cccnc3)n2)ccc1-n1cnc(C)c1` came in with a melting point of 204 to 206 °C.

In the case of `Brc1coc(-c2cn([C@H]3CN4CCC3CC4)nn2)c1`, the melting point was determined as 129 °C.

For `CCOC(=O)c1cnc2c(NC(=O)c3c(Cl)cccc3Cl)cccc2c1SCC(=O)O`, the melting point was 174 to 175 °C.

With `CC1(C)NC(=O)CSC1=NO`, the melting point is 234 to 236 °C.
